Values joined by “and” are separate entries in the source; they are usually repeats but may differ in a detail not shown here. Identical values can stand only once.
What was measured:
[1] = system: primary human cardiomyocytes (HCMs); assay: inhibition of TGF-beta 1 induced human cardiomyocyte hypertrophy; type: cell-based; conditions: TGF-β1 5 ng/mL
Method: Methods (Inhibition of Human Cardiac Hypertrophy In Vitro): primary human cardiomyocytes (HCMs) were grown in growth media to 50% confluence and then were subjected to serum starvation for 24 hrs. After that, 5 ng/mL of the cytokine TGFβ-1 (R&D Systems) was added to the media for 48 hrs to induce HCM hypertrophy. […] Normal cell buffer served as a vehicle only control, where TGFP-1 alone served as the positive control. Analysis for cell surface area (μm^2) was performed using the ImageJ software at the end of the study.
Results: to further support the cGMP generation in human primary cells leads to favorable biological GC-A mediated, the anti-hypertrophic effects were assessed of Compound 19 on live HCMs stressed with TGF-β1 (5 ng/mL), using a state-of-the-art live cell imaging platform (IncuCyte System).

[2] = rodent microsomal stability; type: in vitro ADME; conditions: FIG. 3
in vitro solubility = type: physicochemical; conditions: FIG. 3
pGC-A = molecular target: T1, pGC-A (Homo sapiens, UniProt P16066); assay: cGMP production by HTRF in HEK293 cells overexpressing pGC-A; type: cell-based; conditions: for Emax: HEK293, cGMP normalized to maximal amount produced by an EC80 concentration of ANP, read-out: Max efficacy; for EC50: HEK293 pGC-A cells, cGMP HTRF, in the presence of EC20 concentration of ANP
T1 construct: expressed in transfected cells; host or cells: HEK293
T1 sequence (P16066 33-1061): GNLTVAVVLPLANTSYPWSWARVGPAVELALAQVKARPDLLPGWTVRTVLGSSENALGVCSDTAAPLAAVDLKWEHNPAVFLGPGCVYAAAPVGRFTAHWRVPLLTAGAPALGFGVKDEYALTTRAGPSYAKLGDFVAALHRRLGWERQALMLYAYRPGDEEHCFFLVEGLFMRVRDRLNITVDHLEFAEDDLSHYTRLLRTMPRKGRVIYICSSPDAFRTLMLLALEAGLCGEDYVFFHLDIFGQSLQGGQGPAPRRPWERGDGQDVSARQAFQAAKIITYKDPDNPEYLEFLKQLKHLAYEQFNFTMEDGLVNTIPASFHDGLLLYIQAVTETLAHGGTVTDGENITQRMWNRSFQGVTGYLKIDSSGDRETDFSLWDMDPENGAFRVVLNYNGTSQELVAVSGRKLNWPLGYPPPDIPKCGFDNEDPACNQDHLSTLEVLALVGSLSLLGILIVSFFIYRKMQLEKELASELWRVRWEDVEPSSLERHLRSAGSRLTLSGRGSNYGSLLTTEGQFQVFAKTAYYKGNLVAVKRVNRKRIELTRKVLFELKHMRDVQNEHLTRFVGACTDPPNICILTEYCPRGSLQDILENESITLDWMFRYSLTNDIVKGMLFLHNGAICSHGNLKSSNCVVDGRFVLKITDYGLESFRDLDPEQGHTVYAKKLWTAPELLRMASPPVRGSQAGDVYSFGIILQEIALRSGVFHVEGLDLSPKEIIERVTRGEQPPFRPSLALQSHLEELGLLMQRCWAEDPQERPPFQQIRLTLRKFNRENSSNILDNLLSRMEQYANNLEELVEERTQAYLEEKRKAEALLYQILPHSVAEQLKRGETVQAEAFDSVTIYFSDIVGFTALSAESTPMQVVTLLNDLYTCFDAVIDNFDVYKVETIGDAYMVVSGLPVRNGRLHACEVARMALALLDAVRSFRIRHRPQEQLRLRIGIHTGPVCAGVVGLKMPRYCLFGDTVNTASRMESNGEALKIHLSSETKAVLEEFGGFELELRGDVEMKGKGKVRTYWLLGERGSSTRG
T1 sequence (P01160 124-151 partner limits assumed): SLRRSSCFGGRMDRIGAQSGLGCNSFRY
Method: Assay details: 20 nL of 10 μM test compound in DMSO was added to columns 5-48 of 1536 well white high base screening plates (Corning, New York, N.Y.) cells using 550 ECHO acoustic dispenser (Labcyte, San Jose, Calif.). […] HEK293 cells overexpressing GC-A were resuspended in assay media (OptimMem media containing 2% Heat-inactivated Fetal bovine serum and L-glutamine) at a density of 6×10^5 cells/mL and 2 μL were plated in screening plates (1200 cells/well) in suspension using a Bioraptr 2. Plates were spun at 1000 rpm for 1 min and incubated for 30 min at room temperature. 1.5 μL d2-labled cGMP followed by 1.5 uL Eu^3+ cryptate-labeled anti-cGMP cGMP detection kit (CiBio; #62GM2PEC) prepared according to manufacturer's protocol were added to all wells using a Bioraptr 2 and TR-FRET signal was detected on an EnVision detector (PerkinElmer).

CC[C@H](C)[C@@H]1NC(=O)[C@H](CCCNC(=N)N)NC(=O)[C@H](CC(=O)O)NC(=O)[C@H](CCSC)NC(=O)[C@H](CCCNC(=N)N)NC(=O)CNC(=O)CNC(=O)[C@H](Cc2ccccc2)NC(=O)[C@@H](NC(=O)[C@H](CO)NC(=O)[C@H](CO)NC(=O)[C@H](CCCNC(=N)N)NC(=O)[C@H](CCCNC(=N)N)NC(=O)[C@H](CC(C)C)NC(=O)[C@@H](N)CO)CSSC[C@@H](C(=O)N[C@@H](CC(N)=O)C(=O)N[C@@H](CO)C(=O)N[C@@H](Cc2ccccc2)C(=O)N[C@@H](CCCNC(=N)N)C(=O)N[C@@H](Cc2ccc(O)cc2)C(=O)O)NC(=O)CNC(=O)[C@H](CC(C)C)NC(=O)CNC(=O)[C@H](CO)NC(=O)[C@H](CCC(N)=O)NC(=O)[C@H](C)NC(=O)CNC1=O [ANP, reference compound]
inhibition of HCM hypertrophy ([1]; ANP 10^−8 M alone): significant inhibition | inhibition of HCM hypertrophy ([1]; ANP 10^−10 M alone): no effect

CC(C)(C)C(=O)N1CCC(C(=O)Nc2nc3c(F)cc(F)cc3s2)CC1 [Compound 1]
rodent microsomal stability compared to compound A [2]: improved | solubility compared to compound A (in vitro solubility): improved | Emax (pGC-A): 83% | EC50 (pGC-A): 2180 nM and 1380 nM and 1570 nM | potency compared to compound A (pGC-A; HEK pGC-A cGMP, FIG. 2-3): improved potency | Max efficacy (pGC-A; cGMP normalized to maximal amount produced by an EC80 concentration of ANP): 76% and 77%

O=C(Nc1nc2c(F)cc(F)cc2s1)C1CCN(C(=O)C2CCC2)CC1 [Compound 2]
Emax (pGC-A): 79% | EC50 (pGC-A): 1720 nM

CC(=O)N1CCC(C(=O)Nc2nc3c(F)cc(F)cc3s2)CC1 [Compound 3]
Emax (pGC-A): 74% | EC50 (pGC-A): 1150 nM

CC(C)N1CCC(C(=O)Nc2nc3c(F)cc(F)cc3s2)CC1 [Compound 4]
Emax (pGC-A): 80% | EC50 (pGC-A): 840 nM

CC(C)(C)C(=O)N1CCC(C(=O)Nc2nc3c(Cl)ccc(Cl)c3s2)CC1 [Compound 5]
EC50 (pGC-A): > 66000 nM

CC(C)(C)C(=O)N1CCC(C(=O)Nc2nc3c(Cl)cccc3s2)CC1 [Compound 6]
Emax (pGC-A): 51% | EC50 (pGC-A): 2000 nM

CC(C)(C)OC(=O)N1CCCC(C(=O)Nc2nc3c(F)cc(F)cc3s2)C1 (centres unmarked) [Compound 7]
Emax (pGC-A): 64% | EC50 (pGC-A): 8260 nM

CC(C)(C)C(=O)N1CCCC(C(=O)Nc2nc3c(F)cc(F)cc3s2)C1 (centres unmarked) [Compound 8]
Emax (pGC-A): 73% | EC50 (pGC-A): 5070 nM

O=C(Nc1nc2c(F)cc(F)cc2s1)C1CCCN(C(=O)C2CC2)C1 (centres unmarked) [Compound 9]
Emax (pGC-A): 82% | EC50 (pGC-A): 1970 nM

O=C(Nc1nc2c(F)cc(F)cc2s1)C1CCCN(C(=O)C2CCC2)C1 (centres unmarked) [Compound 10]
Emax (pGC-A): 77% | EC50 (pGC-A): 1810 nM

CC(=O)N1CCCC(C(=O)Nc2nc3c(F)cc(F)cc3s2)C1 (centres unmarked) [Compound 11]
Emax (pGC-A): 79% | EC50 (pGC-A): 1650 nM

O=C(Nc1nc2c(F)cc(F)cc2s1)C1CCCN(C(=O)c2ccccc2)C1 (centres unmarked) [Compound 12]
Emax (pGC-A): 64% | EC50 (pGC-A): 3360 nM

CC(C)(C)CC(=O)N1CCCC(C(=O)Nc2nc3c(F)cc(F)cc3s2)C1 (centres unmarked) [Compound 13]
Emax (pGC-A): 74% | EC50 (pGC-A): 3570 nM

O=C(Nc1nc2c(F)cc(F)cc2s1)C1CCCN(C(=O)Cc2ccccc2)C1 (centres unmarked) [Compound 14]
Emax (pGC-A): 71% | EC50 (pGC-A): 2020 nM

CS(=O)(=O)N1CCCC(C(=O)Nc2nc3c(F)cc(F)cc3s2)C1 (centres unmarked) [Compound 15]
Emax (pGC-A): 77% | EC50 (pGC-A): 1750 nM

O=C(Nc1nc2c(F)cc(F)cc2s1)C1CCCN(Cc2ccccc2)C1 (centres unmarked) [Compound 16]
Emax (pGC-A): 66% | EC50 (pGC-A): 2410 nM

CN1CCCC(C(=O)Nc2nc3c(F)cc(F)cc3s2)C1 (centres unmarked) [Compound 17]
Emax (pGC-A): 81% | EC50 (pGC-A): 1230 nM

O=C(Nc1nc2c(F)cc(F)cc2s1)C1CCCNC1 (centres unmarked) [Compound 18]
Emax (pGC-A): 82% | EC50 (pGC-A): 1050 nM

CC(C)(C)OC(=O)N1CCC(C(=O)Nc2nc3c(F)cc(F)cc3s2)C1 (centres unmarked) [Compound 20]
Emax (pGC-A): 74% | EC50 (pGC-A): 4380 nM

CC(C)(C)C(=O)N1CCC(C(=O)Nc2nc3c(F)cc(F)cc3s2)C1 (centres unmarked) [Compound 21]
Emax (pGC-A): 84% | EC50 (pGC-A): 2090 nM

O=C(Nc1nc2c(F)cc(F)cc2s1)C1CCN(C(=O)C2CC2)C1 (centres unmarked) [Compound 22]
Emax (pGC-A): 82% | EC50 (pGC-A): 6250 nM

O=C(Nc1nc2c(F)cc(F)cc2s1)C1CCN(C(=O)C2CCC2)C1 (centres unmarked) [Compound 23]
Emax (pGC-A): 82% | EC50 (pGC-A): 6060 nM

CC(=O)N1CCC(C(=O)Nc2nc3c(F)cc(F)cc3s2)C1 (centres unmarked) [Compound 24]
Emax (pGC-A): 84% | EC50 (pGC-A): 560 nM

O=C(Nc1nc2c(F)cc(F)cc2s1)C1CCN(C(=O)c2ccccc2)C1 (centres unmarked) [Compound 25]
Emax (pGC-A): 84% | EC50 (pGC-A): 6860 nM

CC(C)(C)CC(=O)N1CCC(C(=O)Nc2nc3c(F)cc(F)cc3s2)C1 (centres unmarked) [Compound 26]
Emax (pGC-A): 81% | EC50 (pGC-A): 3230 nM

O=C(Nc1nc2c(F)cc(F)cc2s1)C1CCN(C(=O)Cc2ccccc2)C1 (centres unmarked) [Compound 27]
Emax (pGC-A): 66% | EC50 (pGC-A): 2690 nM

CS(=O)(=O)N1CCC(C(=O)Nc2nc3c(F)cc(F)cc3s2)C1 (centres unmarked) [Compound 28]
Emax (pGC-A): 66% | EC50 (pGC-A): 990 nM

CN1CCC(C(=O)Nc2nc3c(F)cc(F)cc3s2)C1 (centres unmarked) [Compound 30]
Emax (pGC-A): 84% | EC50 (pGC-A): 1790 nM

O=C(Nc1nc2c(F)cc(F)cc2s1)C1CCNC1 (centres unmarked) [Compound 31]
Emax (pGC-A): 84% | EC50 (pGC-A): 1570 nM

CN(C)CCN1CCC(C(=O)Nc2nc3c(F)cc(F)cc3s2)C1 (centres unmarked) [Compound 32]
Emax (pGC-A): 81% | EC50 (pGC-A): 1630 nM

Source: patent US20230203025A1, “ENHANCERS OF PARTICULATE GUANYLYL CYCLASE RECEPTOR A” (Mayo Foundation for Medical Education and Research, priority 2020, published 2023)
